In US9670147B2, “Antioxidant inflammation modulators: oleanolic acid derivatives with amino and other modifications at C-17” (REATA PHARMACEUTICALS, INC., priority 2008, dated 2017):

Columns and labels:
HO-1 = test: Nrf2 target gene induction in MDA-MB-435 cells, qPCR: HO-1; format: cell-based, human
Description: FIG. 43. Induction of HO-1. FIGS. 43A and 43B: MDA-MB-435 human melanoma cells were treated with vehicle (DMSO) or the indicated compounds and concentrations for 16 hours. HO-1 mRNA levels were quantified using qPCR and were normalized relative to a DMSO-treated sample run in parallel. Values are averages of duplicate wells. FIG. 43C: MDA-MB-435 cells were treated with vehicle (DMSO) or the indicated compounds at 400 nM for 16 hours. HO-1, TrxR1 and actin protein levels were assayed by immunoblotting. Actin served as a loading control.
(§1) FIGS. 44, 46 and 47—Induction of HO-1, TrxR1 and γ-GCS. FIGS. 44A-C, 46A-C, 47A-C: MDA-MB-435 human melanoma cells were treated with vehicle (DMSO) or the indicated compounds (400 nM) for 16 hours. HO-1, thioredoxin reductase-1 (TrxR1), and γ-glutamylcysteine synthetase (γ-GCS) mRNA levels were quantified using qPCR and were normalized relative to a DMSO-treated sample run in parallel. Values are averages of duplicate wells. FIGS. 44D, 46D, 47D: MDA-MB-435 cells were treated with vehicle (DMSO) or the indicated compounds at 400 nM for 16 hours. HO-1, TrxR1 and actin protein levels were assayed by immunoblotting.
(§2) FIG. 45. Induction of HO-1, TrxR1 and γ-GCS. FIGS. 45 A-C: MDA-MB-435 cells were treated with vehicle (DMSO) or the indicated compounds at 160 nM for 16 hours. HO-1, TrxR1, and γ-GCS mRNA levels were quantified by qPCR and were normalized relative to a DMSO-treated sample run in parallel. Values are averages of duplicate wells. FIGS. 44D, 46D, 47D: MDA-MB-435 cells were treated with vehicle (DMSO) or the indicated compounds at 160 nM for 16 hours. HO-1, TrxR1 and actin protein levels were assayed by immunoblotting.
(§3) MDA-MB-435 human melanoma cells were treated with vehicle (DMSO) or the indicated compounds and concentrations for 16 hours. HO-1, thioredoxin reductase-1 (TrxR1), γ-glutamylcysteine synthetase (γ-GCS), and ferritin heavy chain mRNA levels were quantified using qPCR and were normalized relative to a DMSO-treated sample run in parallel. Values are averages of duplicate wells. Primer sequences are as follows.

γ-GCS = test: Nrf2 target gene induction in MDA-MB-435 cells, qPCR: γ-GCS; format: cell-based, human
Description: as §1, §2, §3

NQO1 = test: Nrf2 target gene induction in MDA-MB-435 cells: NQO1; format: cell-based, human; conditions: 250 nM
TrxR1 = test: Nrf2 target gene induction in MDA-MB-435 cells, qPCR: TrxR1; format: cell-based, human; conditions: 400 nM, 16 hours
Description: as §1, §2, §3

[1] = test system: IFNγ-induced NO production in RAW264.7 macrophages; test: Suppression of IFNγ-induced NO production (Griess reagent); format: cell-based, mouse; conditions: 2 h pre-treatment, then 20 ng/ml IFNγ for 24 hours
Procedure, shortened: (§4)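 Mouse RAW264.7 macrophages pre-treated 2 h with compound (nM concentrations) or DMSO, then stimulated with 20 ng/ml recombinant mouse IFNγ for 24 h. Nitrite in medium measured by Griess reagent; viability by WST-1.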

RAW264.7 macrophages = test: Cell viability, WST-1 reagent; format: cell-based, mouse; conditions: 2 h pre-treatment, then 20 ng/ml IFNγ for 24 hours
Procedure, shortened: as §4

[2] = TP levels in mouse brain after feeding in diet, LC/MS; format: in vivo; conditions: CD-1 mice, 200 or 400 mg/kg diet for 3.5 days
Description: FIG. 48. […] CD-1 mice were fed either 200 or 400 mg/kg diet of either TP-319 or TP-500 for 3.5 days, and TP levels in the brains of the mice were analyzed by LC/MS. The structures of TP-319 and TP-500 are shown herein.

Row | Molecule | HO-1 induction (HO-1; 250 nM) | γ-GCS induction (γ-GCS; 250 nM) | NQO1 induction (NQO1) | TrxR1 induction (TrxR1) | IC50 ([1]; Mus musculus) [nM] | IC50 (RAW264.7 macrophages; Mus musculus) [nM] | HO-1 induction (HO-1; 400 nM, 16 hours) | γ-GCS induction (γ-GCS; 400 nM, 16 hours) | IC50 [1] [nM] | IC50 (RAW264.7 macrophages) [nM] | TP levels in the brains of the mice [2]
1 | CC1(C)CC[C@]2(O)CC[C@]3(C)[C@H](C(=O)CC4[C@@]5(C)C=C(C#N)C(=O)C(C)(C)[C@@H]5CC[C@]43C)[C@@H]2C1 (stereo partly drawn) [Compound 63208, (4aR,6aR,6bR,8aS,12aS,12bR,14bR)-8a-hydroxy-4,4,6a,6b,11,11,14b-heptamethyl-3,13-dioxo-3,4,4a,5,6,6a,6b,7,8,8a,9,10,11,12,12a,12b,13,14,14a,14b-icosahydropicene-2-carbonitrile] | 1.1 fold induction above DMSO control | 3.2 fold induction above DMSO control | 1.7 fold induction above DMSO control | – | – | – | – | – | – | – | –
2 | CC1(C)CC[C@]2(NS(C)(=O)=O)CC[C@]3(C)[C@H](C(=O)C[C@@H]4[C@@]5(C)C=C(C#N)C(=O)C(C)(C)[C@@H]5CC[C@]43C)[C@@H]2C1 [Compound 63215, N-((4aS,6aR,6bR,8aR,12aR,12bR,14aR,14bS)-11-cyano-2,2,6a,6b,9,9,12a-heptamethyl-10,14-dioxo-1,2,3,4,4a,5,6,6a,6b,7,8,8a,9,10,12a,12b,13,14,14a,14b-icosahydropicen-4a-yl)methanesulfonamide] | 1.7 fold induction above DMSO control | 3.8 fold induction above DMSO control | 1.7 fold induction above DMSO control | 36% of induction observed for RTA 402 | ~15 | > 200 | 1% of induction observed for RTA 402 | 21% of induction observed for RTA 402 | – | – | –
3 | N-((4aS,6aR,6bR,8aR,12aR,12bR,14aR,14bS)-11-cyano-2,2,6a,6b,9,9,12a-heptamethyl-10,14-dioxo-1,2,3,4,4a,5,6,6a,6b,7,8,8a,9,10,12a,12b,13,14,14a,14b-icosahydropicen-4a-yl)-2,2,2-trifluoroethanesulfonamide [Compound 63254] | 2 fold induction above DMSO control | 3 fold induction above DMSO control | 1.7 fold induction above DMSO control | – | – | – | – | – | ~25 | > 200 | –
4 | CC1(C)CC[C@]2(C(=O)NCC(F)(F)F)CC[C@]3(C)[C@H](C(=O)C=C4[C@@]5(C)C=C(C#N)C(=O)C(C)(C)[C@@H]5CC[C@]43C)[C@@H]2C1 [CDDO-TFEA] | – | – | – | – | – | – | – | – | – | – | Higher Levels in Mouse Brain than CDDO-EA
5 | CC1(C)CC[C@]2(N)CC[C@]3(C)[C@H](C(=O)C[C@@H]4[C@@]5(C)C=C(C#N)C(=O)C(C)(C)[C@@H]5CC[C@]43C)[C@@H]2C1 [Compound 63198, (4aR,6aR,6bR,8aS,12aS,12bR,14aR,14bR)-8a-amino-4,4,6a,6b,11,11,14b-heptamethyl-3,13-dioxo-3,4,4a,5,6,6a,6b,7,8,8a,9,10,11,12,12a,12b,13,14,14a,14b-icosahydropicene-2-carbonitrile] | 1.4 fold induction above DMSO control | 2.8 fold induction above DMSO control | 1.8 fold induction above DMSO control | 71% of induction observed for RTA 402 | ~30 | > 200 | 2% of induction observed for RTA 402 | – | – | – | –
